Positions of bridges follow the written chain, without caps; N, C: chain ends. Residues, ends and D or L forms follow the SMILES beside them. Chains are numbered I, II in the order given. No end group written: not given here.
What was measured:
[1] = tested on: X4 HIV-1 strains
Protocol: (§1) Antiviral screening was performed using the X4 HIV-1 NL4-3 molecular clone.
(§2) HIV-1, HIV-2 and SIV molecular clones differing in coreceptor tropism were generated by transient transfection of 293T cells with proviral DNA by the calcium phosphate method (CalPhos™ Mammalian Transfection Kit, Clon-tech). After overnight incubation, the transfection mixture was replaced by DMEM medium supplemented with 10% FCS, and virus stocks were harvested 48 hrs post-transfection. Subsequently, the culture supernatant was centrifuged for 5 min at 3000 rpm to remove cell debris. The resulting virus stock was quantified by p24 (HIV) or p27 (SIV) antigen ELISA. Virus stocks were either used immediately or stored in aliquots at −80° C.
(§3) TZM-bl reporter cells containing the LacZ reporter gene under the control of the HIV-1 promoter were seeded in 96-well F-bottom microtiter plates (Greiner Bio-One). On the following day, the cells were preincubated with various dilutions of the peptide of SEQ ID NO 16 or its derivatives for 1 hour and subsequently infected with HIV-1, HIV-2, and SIV. Infection rates were determined after 2 days using the one-step Tropix Gal-Screen Kit, as recommended by the manufacturer.

[2] = target: T1, CXCR4 (Homo sapiens, UniProt P61073); experiment: Competition with CXCL12 binding to CXCR4 (real-time fluorescence, eGFP-CXCR4 cells)
T1 construct: expressed in transfected cells
T1 sequence (P61073 whole entry): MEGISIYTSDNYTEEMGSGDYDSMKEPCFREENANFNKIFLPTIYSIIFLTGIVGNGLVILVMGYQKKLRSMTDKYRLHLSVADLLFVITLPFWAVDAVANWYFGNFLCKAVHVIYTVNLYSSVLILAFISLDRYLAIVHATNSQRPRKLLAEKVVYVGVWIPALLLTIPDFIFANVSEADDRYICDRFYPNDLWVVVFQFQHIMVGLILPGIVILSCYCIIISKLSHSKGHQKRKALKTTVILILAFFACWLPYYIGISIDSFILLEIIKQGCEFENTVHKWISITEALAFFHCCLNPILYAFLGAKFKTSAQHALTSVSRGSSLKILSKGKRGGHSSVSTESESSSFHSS
Protocol: Anti-human CXCR4 (clone 12G5, IgG2a) or anti-human CXCR7 (clone 9C4) monoclonal antibodies (mAbs) were purchased from R&D Systems (Minneapolis, Minn.). […] The human chemokines CXCL12 and CXCL12-TexasRed were synthesized as described (Valenzuela-Fernandez, et al. 2001). The human chemokine CXCL11 was purchased from Clinisciences SAS (France).
Experiments were performed using cells stably expressing eGFP-CXCR4, suspended in HEPES-bovine serum albumin buffer (10 mM HEPES, 137.5 mM NaCl, 1.25 mM MgCl2, 1.25 mM CaCl2, 6 mM KCl, 10 mM glucose, 0.4 mM NaH2PO4, 0.1% bovine serum albumin (w/v), pH 7.4) (typically at 10^6 cells/mL). Time-based recordings of the fluorescence emitted at 510 nm (excitation at 470 nm) were performed at 21° C. using a spectrofluorimeter and sampled every 0.3 s. Fluorescence binding measurements were initiated by adding at 30 s 100 nM of CXCL12-TR to the 1 mL cell suspension. For competition experiments, EGFP-CXCR4 expressing cells were preincubated for 10 min in the absence or presence of various concentrations of unlabelled drugs. Then, CXCL12-TR (100 nM) was added and fluorescence was recorded until equilibrium was reached (300 s). Data were analyzed using Kaleidagraph 3.08 software (Synergy Software, Reading, Pa., USA).

[3] = target: T2, CXCR4 (Mus musculus, UniProt P70658); experiment: Asthma mouse model (OVA challenge); type: in vivo; conditions: mice, i.p., allergen challenge with OVA
T2 construct: from tissue; host or cells: live mice (C57Bl/6J for mobilization)
T2 sequence (P70658 whole entry): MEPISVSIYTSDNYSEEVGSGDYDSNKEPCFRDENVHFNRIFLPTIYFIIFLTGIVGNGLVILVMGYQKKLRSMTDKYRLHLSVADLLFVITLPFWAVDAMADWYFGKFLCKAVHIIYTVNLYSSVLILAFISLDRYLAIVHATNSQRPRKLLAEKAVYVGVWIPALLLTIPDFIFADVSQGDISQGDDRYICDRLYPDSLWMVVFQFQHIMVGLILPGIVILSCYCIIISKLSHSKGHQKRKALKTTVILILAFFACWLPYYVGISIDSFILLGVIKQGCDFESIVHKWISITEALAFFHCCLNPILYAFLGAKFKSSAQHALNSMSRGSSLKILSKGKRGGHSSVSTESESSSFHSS
Protocol: Mice were sensitized by intraperitoneal (i.p.) injection on days 0, 1 and 2 of 50 μg ovalbumin (OVA, Sigma-Aldrich, A5503) adsorbed on 2 mg aluminium hydroxide (Sigma-Aldrich, 23918-6) in saline. Mice were challenged by intranasal (i.n.) instillation of 10 μg OVA in 25 μl saline (12.5 μl/nostril) or saline alone for control mice on days 5, 6 and 7 under anesthesia (50 mg/kg ketamine and 3.3 mg/kg xylazine, i.p.). the peptide of SEQ ID NO 16 or ALB409-423 in saline were administered i.p. (16 μmol/kg) two hours before each OVA challenge. Bronchoalveolar lavage (BAL) and differential cell counts were performed 24 h after the last OVA challenge as previously reported in (Rebber et al., 2012).

[4] = tested on: X4 tropic HIV-1 NL4-3; conditions: blocking X4 tropic HIV-1 NL4-3 infection
Protocol: as §1, §2, §3

## HSA precursor: highly abundant HSA precursor; the most abundant protein in human plasma, of which the SEQ ID NO 16 peptide is a fragment
[1]
  antiretroviral effect: no antiretroviral effect

## ALB409-423: ALB409-423, which does not interact with CXCR4; control peptide in the asthma mouse model (VRYTKKVPQVSTPTL) [reference compound]
[2]
  interaction with CXCR4: does not interact
[3]
  CXCR4-dependent infiltration of neutrophils, lymphocytes and eosinophils into the airways: no significant effects
  infiltration of macrophages: no significant effects

## CC[C@H](C)[C@H](N)C(=O)N[C@H](C(=O)N[C@@H](CCCNC(=N)N)C(=O)N[C@@H](Cc1c[nH]c2ccccc12)C(=O)N[C@H](C(=O)N[C@@H](CSSC[C@H](NC(=O)[C@@H](NC(=O)[C@H](Cc1c[nH]c2ccccc12)NC(=O)[C@H](CCCNC(=N)N)NC(=O)[C@@H](NC(=O)[C@@H](N)[C@@H](C)CC)C(C)C)[C@@H](C)O)C(=O)N[C@@H](CCCCN)C(=O)N[C@H](C(=O)N1CCC[C@H]1C(=O)N[C@@H](CCC(N)=O)C(=O)N[C@H](C(=O)N[C@@H](CO)C(=O)O)C(C)C)C(C)C)C(=O)N[C@@H](CCCCN)C(=O)N[C@H](C(=O)N1CCC[C@H]1C(=O)N[C@@H](CCC(N)=O)C(=O)N[C@H](C(=O)N[C@@H](CO)C(=O)O)C(C)C)C(C)C)[C@@H](C)O)C(C)C [408I-419 WC02 x2, (IVRWTCKVPQVS)2] (I: H-IVRWTCKVPQVS-OH / II: H-IVRWTCKVPQVS-OH; disulfide I:6-II:6; N-terminus and C-terminus assumed)
[4]
  IC50: 320 nM

## IVRWTKKVPQVC [408I-419 WC01, IVRWTKKVPQVC]
[4]
  IC50: 1650 nM

— patent publication US10294272B2, “Peptides with antagonistic activities against natural CXCR4” (Pharis Biotec GmbH, priority 2013, dated 2019)
